The values that follow come from PMC8151276, “An Integrated Approach toward NanoBRET Tracers for Analysis of GPCR Ligand Engagement” (Molecules, 2021).

The target of this test is T1, OPRM1 (Homo sapiens, UniProt P35372).
T1 construct: purchased Promega (in-house HiBiT-GPCR construct library, NanoBRET)
In words: NanoBRET screen HiBiT-OPRM1 in HEK293. The class given is binding. As to the method: Each tracer candidate was screened across the entire library of HiBiT-GPCR constructs using NanoBRET as the detection modality. As depicted in Figure 4A, the specificity of interactions was evaluated through decrease in BRET due to competitive displacement of a bound tracer by excess parental compound. Each tracer was analyzed for binding to each HiBiT-GPCR fusion in the absence and in the presence of competing parental compound. Briefly, HEK293 cells were transfected with HiBiT-GPCR constructs diluted into promoterless DNA to reduce expression and maximize translocation to the cell surface. Each tracer candidate was then screened at concentrations of 1 μM and 0.1 μM across cells expressing these fusions. Cells were treated for 1.5 h with tracer either alone or in the presence of 20 μM competing parental compound (i.e., control). BRET was measured upon addition of purified LgBiT and subsequent complementation with HiBiT genetically fused to a GPCR. The specificity of interactions was assessed through a decrease in BRET signal due to competitive displacement of the bound tracer. To further gauge the robustness of these interactions, the fold response over the control (i.e., BRETtracer/BRETcontrol) was calculated. We chose a 1.5-fold response, which translates to ≥7-fold signal over noise as the minimal threshold required to score an interaction as positive.
HiBiT-GPCR DNA constructs were diluted in 10 mM Tris pH 8 to a final concentration of 0.01 μg/μL, arrayed in 96-well plates and stored at −20 °C. For transfection, HEK293 cells were suspended in Opti-MEM (without phenol red) supplemented with 2% fetal bovine serum (Seradigm) and 100 units/mL penicillin–streptomycin (Gibco) at a final concentration of 220,000 cells/mL and dispensed into white 96-well plates at 90 μL/well. Subsequent transfections and screens were carried using an Agilent Bravo Automated Liquid Handling Platform. First, the 96-well HiBiT DNA arrays were diluted 25-fold in Opti-MEM (without serum or phenol red) to a final concentration of 0.0004 μg/μL and 20 μL of the diluted DNAs were transferred into new 96-well plates. Next, promoterless carrier DNA (1 μg/μL) was diluted 25-fold (0.04 μg/μL) and then dispensed into the diluted arrays at 20 μL/well. Following brief mixing, Viafect transfection reagent (Promega) diluted 16-fold into Opti-MEM was dispensed into the plates at 40 μL/well. After mixing by pipetting, plates were incubated for 10 min on the pipetting station deck. The DNA-transfection reagent complexes were then added to plates containing cells. To facilitate the screen, 10 μL of DNA-transfection reagent complexes were added in duplicates to the top 4 and bottom 4 rows, resulting in two identical 48-well arrays per plate. Plates with transfected cells were incubated for 18–20 h at 37 °C/5% CO2. A screen of each tracer across the entire library using two different concentrations requires duplicate plates of transfected cells. Depending on the number of tracers being screened, transfections can be scaled up using the same ratios. The next day, for each tracer, four 20× screening solutions in tracer dilution buffer (Promega) were prepared: two duplicates at final concentration of 20 μM and two duplicates at a final concentration of 2 μM. […] The four resulting solutions were diluted 4-fold in Opti-MEM without serum or phenol red to generate 5× solutions (5 µM and 0.5 µM tracer +/− 100 μM competing compound). To screen the library, a BioTek MultiFlo FX liquid dispenser was used to dispense 22.5 µL of tracer solution to the top 4 rows and 22.5 µL tracer + competing compound solution to the 4 bottom rows. Plates were briefly mixed on an orbital shaker and incubated for 1.5 h at room temperature. […] Plates were briefly mixed on an orbital shaker and incubated for 15 min to allow complementation.
Background: BRET reads energy transfer from a luciferase to a nearby fluorophore.

T1 sequence (P35372 whole entry): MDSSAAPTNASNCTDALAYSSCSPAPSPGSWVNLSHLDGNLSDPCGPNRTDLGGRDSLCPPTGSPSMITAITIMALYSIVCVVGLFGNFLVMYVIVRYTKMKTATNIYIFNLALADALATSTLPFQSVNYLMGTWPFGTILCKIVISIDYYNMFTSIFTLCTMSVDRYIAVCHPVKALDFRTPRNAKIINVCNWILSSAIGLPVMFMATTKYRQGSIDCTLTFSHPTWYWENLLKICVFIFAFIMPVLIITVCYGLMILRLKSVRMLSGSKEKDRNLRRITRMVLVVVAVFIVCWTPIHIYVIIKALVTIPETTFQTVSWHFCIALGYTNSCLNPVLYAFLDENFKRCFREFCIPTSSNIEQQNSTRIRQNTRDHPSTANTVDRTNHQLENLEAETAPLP

On to `O=C(CCOCCOCCOCCOCCNC(=O)CCc1ccc2n1[B-](F)(F)[N+]1=C(c3ccc[nH]3)C=CC1=C2)NCCCN1CCN(C2=Nc3ccccc3Oc3ccc(Cl)cc32)CC1` [Loxapine-a-2-NB590], for which the “NanoBRET Fold Response” value is, setting by setting: (OPRM1, tracer 0.1μM) 1.06; (OPRM1, tracer 1μM) 1.06. For the compound `CCCn1c(=O)c2[nH]c(-c3ccc(OCC(=O)NCCNC(=O)CCOCCNC(=O)c4ccc(CNC(=O)CCc5ccc6n5[B-](F)(F)[N+]5=C(c7ccc[nH]7)C=CC5=C6)cc4)cc3)nc2n(CCC)c1=O` [XAC-3-NB590], the “NanoBRET Fold Response” value is, setting by setting: (OPRM1, tracer 0.1μM) 0.85; (OPRM1, tracer 1μM) 1.02. `CN(C)CCC=C1c2ccccc2CCc2ccc(C(=O)NCCNC(=O)CCOCCOCCOCCOCCNC(=O)CCc3ccc4n3[B-](F)(F)[N+]3=C(c5ccc[nH]5)C=CC3=C4)cc21` [Amitriptyline-a-2-NB590]: the “NanoBRET Fold Response” value (tracer at 0.1μM) is listed as 0.95 and the “NanoBRET Fold Response” value (tracer at 1μM) is 1.10.

With `COc1ccccc1N1CCN(CCCCN2C(=O)c3ccc(CNC(=O)CCOCCOCCOCCOCCNC(=O)CCc4ccc5n4[B-](F)(F)[N+]4=C(c6ccc[nH]6)C=CC4=C5)cc3C2=O)CC1` [NAN-190-2-NB590], the “NanoBRET Fold Response” value stood at 0.96 (OPRM1, tracer 0.1μM) and 1.10 (OPRM1, tracer 1μM). Regarding `O=C(CCc1ccc2n1[B-](F)(F)[N+]1=C(c3ccc[nH]3)C=CC1=C2)NCc1ccc(C(=O)NCCOCCOCCNCC(O)COc2cccc3ccccc23)cc1` (stereo not shown) [Propranolol-3-NB590], the “NanoBRET Fold Response” value is 1.02 (OPRM1, 0.1μM) and 1.21 (OPRM1, 1μM). For `COc1ccccc1N1CCN(CCCCN2C(=O)c3ccc(CNC(=O)CCOCCNC(=O)c4ccc(CNC(=O)CCc5ccc6n5[B-](F)(F)[N+]5=C(c7ccc[nH]7)C=CC5=C6)cc4)cc3C2=O)CC1` [NAN-190-3-NB590], the “NanoBRET Fold Response” value is, setting by setting: (OPRM1, tracer 0.1μM) 1.39; (OPRM1, tracer 1μM) 0.91. Take `O=C(CCc1ccc2n1[B-](F)(F)[N+]1=C(c3ccc[nH]3)C=CC1=C2)NCc1ccc(C(=O)NCCOCCC(=O)N[C@@H]2CC[C@@]3(O)[C@H]4Cc5ccc(O)c6c5[C@@]3(CCN4CC3CC3)[C@H]2O6)cc1` [Naltrexone-3-NB590]: the “NanoBRET Fold Response” value is 1.59 (OPRM1, tracer 0.1μM) and 1.31 (OPRM1, tracer 1μM). For `CCOC(=O)c1cc(C#N)c(N2CCC(C(=O)NS(=O)(=O)Cc3ccccc3/C=C/C(=O)NCCNC(=O)CCc3ccc4n3[B-](F)(F)[N+]3=C(c5ccc[nH]5)C=CC3=C4)CC2)nc1C` [AZD1283-1-NB590], the “NanoBRET Fold Response” value is, setting by setting: (OPRM1, 0.1μM) 1.07; (OPRM1, 1μM) 0.95.

In the case of `COc1ccc2[nH]c(-c3ccc(CNC(=O)CCOCCOCCOCCOCCNC(=O)CCc4ccc5n4[B-](F)(F)[N+]4=C(c6ccc[nH]6)C=CC4=C5)cc3)c(CCNC(C)=O)c2n1` [AzomelatoninICO9-2-NB590], the “NanoBRET Fold Response” value is given as 0.74 (0.1μM tracer) and 0.86 (1μM tracer).

For `CC(C)N(CC[C@H](c1ccccc1)c1cc(CCNC(=O)CCOCCOCCOCCOCCNC(=O)CCc2ccc3n2[B-](F)(F)[N+]2=C(c4ccc[nH]4)C=CC2=C3)ccc1O)C(C)C` [Tolterodine-2-NB590], the “NanoBRET Fold Response” value (OPRM1, tracer 0.1μM) is listed as 1.23 and the “NanoBRET Fold Response” value (OPRM1, tracer 1μM) was found to be 1.10. Consider `CN1CCN(C2=Nc3cc(Cl)ccc3N(CC(=O)NCCOCCOCCOCCOCCNC(=O)CCc3ccc4n3[B-](F)(F)[N+]3=C(c5ccc[nH]5)C=CC3=C4)c3ccccc32)CC1` [Clozapine-c-2-NB590], for which the “NanoBRET Fold Response” value by setting is: (OPRM1, 0.1μM tracer) 0.98; (OPRM1, 1μM tracer) 0.94.

`N#CN=C(NCCCOc1cccc(CN2CCCCC2)c1)NCCNC(=O)CCOCCOCCOCCOCCNC(=O)CCc1ccc2n1[B-](F)(F)[N+]1=C(c3ccc[nH]3)C=CC1=C2` [Aminopotentidine-2-NB590]: the “NanoBRET Fold Response” value stood at 1.02 (OPRM1, tracer 0.1μM) and 1.01 (OPRM1, tracer 1μM). `COc1ccc2c(n1)c(CCNC(C)=O)cn2CCNC(=O)CCc1ccc2n1[B-](F)(F)[N+]1=C(c3ccc[nH]3)C=CC1=C2` [Azamelatonin-1-NB590]: the “NanoBRET Fold Response” value was 1.22 (0.1μM tracer) and 1.22 (1μM tracer). With `CN(CCC=C1c2ccccc2CCc2ccccc21)C(=O)CCOCCOCCOCCOCCNC(=O)CCc1ccc2n1[B-](F)(F)[N+]1=C(c3ccc[nH]3)C=CC1=C2` [Amitriptyline-e-2-NB590], the “NanoBRET Fold Response” value (tracer at 1μM) is listed as 1.04. On to `N#CN/C(=N\CCNC(=O)c1ccc(N)cc1)NCCCOc1cccc(CN2CCCCC2)c1` [Aminopotentidine (unmodified)], for which the “NanoBRET Fold Response” value (OPRM1, other tracers/Aminopotentidine (unmodified), 0.1μM) is recorded as 1.22 and the “NanoBRET Fold Response” value (OPRM1, other tracers/Aminopotentidine (unmodified), 1μM) came to 0.99.

`CC(C)N(CC[C@H](c1ccccc1)c1cc(CCNC(=O)c2ccc(CNC(=O)CCc3ccc4n3[B-](F)(F)[N+]3=C(c5ccc[nH]5)C=CC3=C4)cc2)ccc1O)C(C)C` [Tolterodine-BZ-NB590]: the “NanoBRET Fold Response” value stood at 0.95 (OPRM1, tracer 0.1μM) and 0.93 (OPRM1, tracer 1μM). The corresponding values for `O=C(CCc1ccc2n1[B-](F)(F)[N+]1=C(c3ccc[nH]3)C=CC1=C2)NCCOCCOCCNC(=O)OCCOCCN1CCN(C2=Nc3ccccc3Sc3ccccc32)CC1` [Quetiapine-a-2-NB590] are 0.84 and 0.89. In the case of `Cc1cc2c(s1)Nc1ccccc1N=C2N1CCN(CCCNC(=O)CCOCCOCCOCCOCCNC(=O)CCc2ccc3n2[B-](F)(F)[N+]2=C(c4ccc[nH]4)C=CC2=C3)CC1` [Olanzapine-a-2-NB590], the “NanoBRET Fold Response” value worked out at 0.96 (OPRM1, tracer 0.1μM) and 1.08 (OPRM1, tracer 1μM). For `CN(C)CCC=C1c2ccccc2CCc2ccc(C(=O)NCCNC(=O)CCOCCOCCOCCOCCNC(=O)CCc3ccc4n3[B-](F)(F)[N+]3=C(c5ccc[nH]5)C=CC3=C4)cc21` [Amitriptyline-b-2-NB590], the “NanoBRET Fold Response” value worked out at 0.87 (tracer at 0.1μM, listed as amitriptyline-b-2-NB590) and 0.87 (tracer at 1μM, listed as amitriptyline-b-2-NB590). As to `O=C(CCOCCOCCOCCOCCNC(=O)CCc1ccc2n1[B-](F)(F)[N+]1=C(c3ccc[nH]3)C=CC1=C2)NCCCN1CCN(C2=Nc3cc(Cl)ccc3Nc3ccccc32)CC1` [Clozapine-a-2-NB590], the “NanoBRET Fold Response” value runs as follows: (OPRM1, 0.1μM tracer) 0.98; (OPRM1, 1μM tracer) 1.13. `CN1CCN(C2=Nc3cc(Cl)ccc3Nc3ccc(CNC(=O)CCOCCOCCOCCOCCNC(=O)CCc4ccc5n4[B-](F)(F)[N+]4=C(c6ccc[nH]6)C=CC4=C5)cc32)CC1` [Clozapine-b-2-NB590]: the “NanoBRET Fold Response” value (OPRM1, 0.1μM tracer) was determined as 0.96 and the “NanoBRET Fold Response” value (OPRM1, 1μM tracer) was 0.86. `Cc1nc2n(c(=O)c1CCN1CCC(c3noc4cc(F)ccc34)CC1)CCCC2OC(=O)NCCOCCOCCOCCOCCNC(=O)CCc1ccc2n1[B-](F)(F)[N+]1=C(c3ccc[nH]3)C=CC1=C2` (stereo not shown) [Risperidone-2-NB590]: the “NanoBRET Fold Response” value by setting is: (OPRM1, tracer 0.1μM) 0.92; (OPRM1, tracer 1μM) 0.96.
